Results published in ChEMBL document CHEMBL6087404, “Naphthoindole-2-carboxamides as a lipophilic chemotype of hetarene-anthraquinones potent against P-gp resistant tumor cells” (Eur J Med Chem, 2025).
Active and inactive are the calls of the source. The rule behind the calls is not given here.

Experiments:
[1] = tested on: K562/4; experiment: Antiproliferative activity against human K562/4 cells incubated for 72 hrs by MTT assay; assay type: functional, cell-based; conditions: K562/4, 72 h
[2] = Antiproliferative activity against hFB-hTERT6 cells incubated for 72 hrs by MTT assay; assay type: toxicity, cell-based; conditions: human
[3] = tested on: K562; experiment: Antiproliferative activity against human K562 cells incubated for 72 hrs by MTT assay; assay type: functional, cell-based; conditions: K562, 72 h
[4] = Selectivity index, ratio of IC50 for human hFB-hTERT6 cells to IC50 for human K562 cells; assay type: toxicity; conditions: hFB-hTERT6 cells and K562 cells, read-out: Ratio IC50
[5] = tested on: A549; experiment: Antiproliferative activity against human A549 cells incubated for 72 hrs by MTT assay; assay type: functional, cell-based; conditions: A549, 72 h
[6] = Resistance index, ratio of IC50 for human K562/4 cells to IC50 for human K562 cells; assay type: functional
[7] = tested on: DNA; experiment: Binding affinity to pBR322 plasmid DNA (unknown origin) assessed as effect on electrophoretic mobility of DNA at 1 to 40 uM incubated for 30 mins; assay type: nucleic-acid assay; conditions: Escherichia coli, dose 1-40 µM
[8] = Drug uptake in human HCT-116 cells at 3 uM incubated for 10 mins by confocal microscopy; assay type: ADME, cell-based; conditions: hct-116, 10 min
[9] = molecular target: T1, DNA topoisomerase 1 (Homo sapiens) (UniProt P11387); experiment: Inhibition of Top1 (unknown origin)-mediated unwinding of supercoiled DNA at 5 uM incubated for 30 mins by electrophoretic analysis
T1 sequence (whole entry): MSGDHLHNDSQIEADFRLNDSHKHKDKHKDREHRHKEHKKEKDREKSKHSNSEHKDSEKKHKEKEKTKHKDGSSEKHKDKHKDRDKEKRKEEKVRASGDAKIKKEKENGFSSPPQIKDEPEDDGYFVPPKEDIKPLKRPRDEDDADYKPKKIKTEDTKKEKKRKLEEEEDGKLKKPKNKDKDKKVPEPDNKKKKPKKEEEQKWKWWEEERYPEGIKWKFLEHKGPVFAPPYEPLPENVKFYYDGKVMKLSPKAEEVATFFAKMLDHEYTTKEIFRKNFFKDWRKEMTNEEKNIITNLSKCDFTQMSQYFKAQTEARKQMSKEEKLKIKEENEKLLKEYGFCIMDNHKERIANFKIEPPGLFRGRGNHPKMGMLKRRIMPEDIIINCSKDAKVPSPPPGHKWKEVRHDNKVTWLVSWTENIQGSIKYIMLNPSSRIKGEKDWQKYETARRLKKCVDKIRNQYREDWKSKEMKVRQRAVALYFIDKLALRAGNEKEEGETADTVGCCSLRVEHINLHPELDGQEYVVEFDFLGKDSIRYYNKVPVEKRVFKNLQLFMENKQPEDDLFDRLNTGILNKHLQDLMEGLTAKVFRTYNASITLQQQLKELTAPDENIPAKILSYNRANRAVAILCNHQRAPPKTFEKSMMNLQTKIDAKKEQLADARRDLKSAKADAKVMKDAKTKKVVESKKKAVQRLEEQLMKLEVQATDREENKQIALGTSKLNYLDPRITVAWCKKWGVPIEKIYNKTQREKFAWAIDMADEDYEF

[10] = Drug uptake in P-gp+ human […] cells at 3 uM incubated for 10 mins by confocal microscopy; assay type: ADME, cell-based; conditions: k562/4, 10 min
[11] = Drug uptake in cytoplasmic membrane of human HCT-116 cells at 3 uM incubated for 1 hr by confocal microscopy; assay type: ADME, cell membranes, Cytoplasm membrane; conditions: hct-116, 1 h
[12] = Drug uptake in lysosome of human HCT-116 cells at 3 uM incubated for 1 hr by LysoTracker Deep Red dye based confocal microscopy; assay type: ADME, subcellular; conditions: hct-116, 1 h
[13] = Drug uptake in nuclear membrane of human HCT-116 cells at 3 uM incubated for 1 hr by confocal microscopy; assay type: ADME, cell membranes; conditions: hct-116, 1 h
[14] = Drug uptake in human K562 cells at 2 uM incubated for 3 to 120 hrs by flow cytometry; assay type: ADME, cell-based; conditions: k562, 2 µM, time 3-120 hrs

Row | SMILES | IC50 [1] | IC50 [3] | IC50 [5] | Activity [7] | Drug uptake [8] | inhibition [9] | Drug uptake [10] | Drug uptake [11] | Drug uptake [12] | Drug uptake [13] | Drug uptake [14] | IC50 at 72 h [2] | selectivity ratio [4] | Ratio IC50 [6]
1 | COc1cccc2c1C(=O)c1c(O)c3c(c(O)c1C2=O)C[C@@](O)(C(=O)CO)C[C@@H]3O[C@H]1C[C@H](N)[C@H](O)[C@H](C)O1 [DOXORUBICIN] | 14 µM | – | – | – | – | – | – | – | – | – | – | – | – | –
2 | CS(=O)(=O)O.NC1CCCN(C(=O)c2cc3c(O)c4c(c(O)c3[nH]2)C(=O)c2ccccc2C4=O)C1 (racemic) | 1 µM | 1.2 µM | 1.2 µM | – | – | – | – | – | – | – | – | 1.8 µM | 1.5 | 0.8
3 | Cc1[nH]c2c(O)c3c(c(O)c2c1C(=O)N1CC[C@H](N)C1)C(=O)c1ccccc1C3=O | 50 µM | 0.4 µM | 1.9 µM | inactive | Active | Active; Slightly Less Potent | Active | Not_active | Active | Not_active | Not_active | 5 µM | 12.5 | 125
4 | CS(=O)(=O)O.N[C@@H]1CCN(C(=O)c2cc3c(O)c4c(c(O)c3[nH]2)C(=O)c2ccccc2C4=O)C1 | 1.2 µM | 1.3 µM | 4.3 µM | – | – | – | – | – | – | – | – | 4.3 µM | 3.3 | 0.9
5 | N[C@H]1CCN(C(=O)c2cc3c(O)c4c(c(O)c3s2)C(=O)c2ccccc2C4=O)C1 | 0.4 µM | – | 2 µM | – | – | – | – | – | – | – | – | 1.8 µM | 6 | 1.2
6 | N[C@H]1CCN(C(=O)c2cc3c(O)c4c(c(O)c3o2)C(=O)c2ccccc2C4=O)C1 | 1.7 µM | 1.6 µM | > 50 µM | – | – | – | – | – | – | – | – | > 50 µM | > 31.2 | 1.1

Second part, led by results:

Row | IC50 [1] | IC50 [3] | IC50 [5] | Activity [7] | Drug uptake [8] | inhibition [9] | Drug uptake [10] | Drug uptake [11] | Drug uptake [12] | Drug uptake [13] | Drug uptake [14] | SMILES | IC50 at 72 h [2] | selectivity ratio [4] | Ratio IC50 [6]
7 | 41 µM | 1.8 µM | 4.2 µM | – | – | – | – | – | – | – | – | CS(=O)(=O)O.O=C(NC1CCNCC1)c1cc2c(O)c3c(c(O)c2[nH]1)C(=O)c1ccccc1C3=O | 2.6 µM | 1.4 | 22.8
8 | 2.3 µM | 1.2 µM | 9 µM | – | – | – | – | – | – | – | – | CS(=O)(=O)O.O=C(NC1CCCNC1)c1cc2c(O)c3c(c(O)c2[nH]1)C(=O)c1ccccc1C3=O (racemic) | 4.4 µM | 3.7 | 1.9
9 | 43 µM | 3.5 µM | 4.3 µM | – | – | – | – | – | – | – | – | CS(=O)(=O)O.O=C(N[C@H]1CCNC1)c1cc2c(O)c3c(c(O)c2[nH]1)C(=O)c1ccccc1C3=O | 5.5 µM | 1.6 | 12.3
10 | 47 µM | 2.3 µM | 4 µM | – | – | – | – | – | – | – | – | CS(=O)(=O)O.O=C(N[C@@H]1CCNC1)c1cc2c(O)c3c(c(O)c2[nH]1)C(=O)c1ccccc1C3=O | 5 µM | 2.2 | 20.4
11 | 1.2 µM | 1 µM | 4.4 µM | – | – | – | – | – | – | – | – | CS(=O)(=O)O.O=C1c2ccccc2C(=O)c2c1c(O)c1cc(C(=O)N3CCNCC3)[nH]c1c2O | 3.3 µM | 3.3 | 1.2
